Experimental data published in patent US5424185A, “Human high-affinity neurotransmitter uptake system” (Baylor College of Medicine, priority 1990, dated 1995).
Read-outs that look alike come from different tables or passages of the source.

Key:
[1] = test system: mouse pons-medulla-spinal cord; details: membrane preparation, published value, cited from earlier work
[2] = test system: human glycine transporter (L-GLY2 cells)
Experimental: The incubation was conducted for 40 min at 37° C. Each well was washed three times at room temperature with excess Ringer's buffer and then incubated with 50 μl of alkaline phosphatase buffer (100 mM Tris, pH 9.5, 100 mM NaCl, 10 mMMgCl2, 20 μg/ml saponin, 3.2 mg/ml p-nitrophenyl phosphate) for 1-2 hours at 37° C. The phosphatase assay was used as a relative assessment of cell number, and used to normalize the level of [^3 H]glycine associated with each well as described above. The phosphatase reading for each assayed well was plotted versus its corresponding level of [^3 H]glycine-retention.
(§1) L-GLY2 and L-M cells were assayed for the uptake of [^3 H] glycine (0.1 μM) in the presence or absence of competing, unlabelled amino acids or neurotransmitters. Each competing ligand was present in 1000-fold molar excess (100 μM) of the [^3 H] glycine. […] The assays were performed at 37° C. for 40 minutes. Alanine, proline and serine, each at 1 mM, was added to the Ringer's buffer for all assays.
(§2) At each concentration of [^3 H] glycine used, both uptake levels were converted to picomole-equivalents of [^3 H] glycine, then normalized by both length of assay and corresponding protein contents to arrive at the uptake velocity values. The nonspecific uptake velocity was then subtracted from the total uptake velocity to yield the specific uptake velocity. The specific uptake velocities and their corresponding [^3 H] glycine concentrations were analyzed by both Michaelis-Menten and Lineweaver-Burk transformations of the resulting kinetic profiles. For both analyses, data-points were fitted to either linear or logarithmic functions by computerized algorithms.

[3] = test system: Y79 retinoblastoma; details: cell, published value, cited from earlier work
[4] = test system: frog brain; details: membrane preparation, published value, cited from earlier work
[5] = test system: chicken brain; details: membrane preparation, published value, cited from earlier work
[6] = test system: frog retina; details: read-out: Km, frog retina; tissue, published value; cited from earlier work
[7] = test system: C6 glioblastoma; details: read-out: Km, C6 glioblastoma; membrane preparation, published value; cited from earlier work
[8] = test system: GABA transporter (L-GAB1 cells); experiment: [3H]GABA uptake by L-GAB1 cells; assay type: cell-based, human; details: competitor at 100-fold excess relative to [3H]GABA
Experimental: Using concentrations of [^3 H] GABA ranging from 2 to 500 μM, the kinetic profile of GABA uptake was determined for both L-GAB1 and L-M cells. The initial velocity of GABA uptake was measured and plotted against the corresponding [^3 H] GABA concentration for both cell lines. […] The velocity profile for L-GAB1 cells was subtracted by that of L-M cells, and the resulting data used for a double-reciprocal plot of velocity-^1 against GABA concentration-^1. The velocity profile for L-M cells was also transformed into a double-reciprocal plot.
Several known inhibitors of high-affinity GABA uptake were used to examine their efficacies in inhibiting [^3 H] GABA uptake by L-GAB1 cells. […] Each of these agents was used at several concentrations ranging from 1 to 100 μM in assays of [^3 H] GABA uptake by L-GAB1 cells. […] GABA uptake by L-GAB1 cells.
L-GAB1 cells were also analyzed in terms of their ligand-specificity in the high-affinity GABA uptake mechanism.

[9] = test system: rat spinal cord; details: membrane preparation, published value, cited from earlier work
[10] = test system: L-M cells; details: ligand 100 μM (1000-fold excess), 0.1 μM [3H]glycine, 40 min, 37° C.
Experimental: as §1, §2

[11] = test system: goldfish retina; details: tissue, published value, cited from earlier work
[12] = test system: human brain (post-mortem); details: membrane preparation, published value, cited from earlier work
[13] = test system: mouse cerebral cortex; details: membrane preparation, published value, cited from earlier work
[14] = test system: frog spinal cord; details: membrane preparation, published value, cited from earlier work
[15] = test system: monkey retina; details: tissue, published value, cited from earlier work
[16] = test system: chicken spinal cord; details: membrane preparation, published value, cited from earlier work
[17] = test system: rat brain; details: membrane preparation, published value, cited from earlier work

NCC(=O)O [glycine]
Vmax, mouse pons-medulla-spinal cord [1]: 3100 ± 100 pmol/mg/min | Km ([1]; read-out: Km, mouse pons-medulla-spinal cord): 27.6 ± 2.6 µM | Vmax of glycine uptake, L-GLY2 ([2]; 50 nM to 5 μM [3H]glycine, 10 min, Lineweaver-Burk): 10.19±3.32 pmol/min/mg protein | Vmax, L-GLY2 ([2]; Table IV): 10.19 ± 3.32 pmol/mg/min | effect of competing ligand on [3H]glycine uptake, L-GLY2 ([2]; ligand 100 μM (1000-fold excess), 0.1 μM [3H]glycine, 40 min, 37° C., 1 mM alanine, proline, serine): reduced [^3 H] glycine transport into L-GLY2 cells to the same level as that of L-M cells | Km ([2]; read-out: Km, L-GLY2, Table IV): 1.5 ± 0.2 µM | Km ([2]; read-out: apparent Km of glycine uptake, L-GLY2, 50 nM to 5 μM [3H]glycine, 10 min, Lineweaver-Burk): 1.5 µM | Vmax, Y79 retinoblastoma [3]: 138.40 ± 12.40 pmol/mg/min | Km ([3]; read-out: Km, Y79 retinoblastoma): 24.4 ± 2.6 µM | Vmax, frog brain [4]: 1.14 ± 0.06 pmol/mg/min | Km ([4]; read-out: Km, frog brain): 24.8 ± 1.4 µM | Vmax, chicken brain [5]: 0.32 ± 0.01 pmol/mg/min | Km ([5]; read-out: Km, chicken brain): 37 ± 2 µM | Km [6]: > 4.7 µM | Km [7]: 100 µM | ligand-specificity of [3H]GABA uptake by L-GAB1 cells [8]: not inhibited | Vmax, rat spinal cord [9]: 1.43 ± 0.02 pmol/mg/min | Km ([9]; read-out: Km, rat spinal cord): 46.5 ± 1.6 µM | effect of competing ligand on [3H]glycine uptake, L-M [10]: not significantly inhibited | Km ([11]; read-out: Km, goldfish retina): 8.08 ± 0.7 µM | Vmax, goldfish retina [11]: 8.71 ± 0.54 pmol/mg/min | Vmax, human brain (post-mortem) [12]: 55 ± 25 pmol/mg/min | Km ([12]; read-out: Km, human brain (post-mortem)): 35 ± 19 µM | Vmax, mouse cerebral cortex [13]: 340 ± 70 pmol/mg/min | Km ([13]; read-out: Km, mouse cerebral cortex): 15.2 ± 2 µM | Vmax, frog spinal cord [14]: 1.52 ± 0.03 pmol/mg/min | Km ([14]; read-out: Km, frog spinal cord): 29 ± 0.7 µM | Km ([15]; read-out: Km, monkey retina): 2.5 ± 0.9 µM | Vmax, monkey retina [15]: 3.30 ± 1.60 pmol/mg/min | Vmax, chicken spinal cord [16]: 0.65 ± 0.02 pmol/mg/min | Km ([16]; read-out: Km, chicken spinal cord): 41.8 ± 1 µM | Vmax, rat brain [17]: 0.48 ± 0.07 pmol/mg/min | Km ([17]; read-out: Km, rat brain): 34 ± 1.3 µM
